ChEMBL document CHEMBL2417420, “Autotaxin inhibition: development and application of computational tools to identify site-selective lead compounds” (Bioorg Med Chem, 2013)
Peptide text beside a SMILES is read from it. * marks the point of attachment. Cbz = O=C(OCc1ccccc1)*

Biological target: Autotaxin (Homo sapiens, UniProt Q13822)
Assay: Inhibition of C-terminal FLAG-tagged human recombinant autotaxin using synthetic substrate FS-3 at 10 uM measured every 2 mins by FRET assay relative to control

SMILES	inhibition
COc1cc(C2CC(=O)NC(SCC(N)=O)=C2C#N)ccc1O (stereo not drawn)	0%
COc1cc(CCNC(=O)c2ccc3c(c2)nc(-c2cc(OC)c(OC)c(OC)c2)n3CCc2ccc(OC)c(OC)c2)cc(OC)c1	30%
COc1cccc(CC(=O)NCCNc2nc3cc4c(cc3cc2C#N)OCO4)c1	20%
O=C(NCc1ccc(NC(=O)c2cn(Cc3ccccc3)c3ccccc23)cc1)c1cnc2cc(C(F)(F)F)ccc2c1O	0%
COc1cc(C(=O)NCCNc2nc3cc4c(cc3cc2C#N)OCO4)cc(OC)c1OC	10%
COc1cccc(CCNC(=O)c2ccc3c(c2)nc(-c2cc(OC)cc(OC)c2)n3CCc2ccc(OC)c(OC)c2)c1	20%
CC(O)C(NC(=O)c1cccnc1N1CCC(CCCC2CCN(C(=O)CCC(=O)c3ccccc3)CC2)CC1)C(N)=O (stereo not drawn)	30%
CCCCCCOc1ccc(/C=N/c2ccc(C)cc2)cc1	0%
CCOc1ccc(/N=C\c2ccc(OCC)c(OCC)c2)cc1	0%
CC1CCC(OCC(=O)N2CCN(c3ncccc3C(=O)N3CCCC3C(N)=O)CC2)C(C(C)C)C1 (stereo not drawn)	20%
Cc1ccc(-c2ccc(-c3nnc(CCCC(=O)NC(CO)CO)o3)cc2)cc1	10%
CCc1cc2c(cc3c(=O)n(CCCC(=O)NCc4ccc(OC(C)C)cc4)ncn32)s1	20%
CCc1nc2ccc(C(=O)N3CCN(C(C)=O)CC3)cn2c1N(C)C(=O)COc1ccccc1	0%
COc1cc(C2OCC3(CCCC4(COC(c5ccc(O)c(OC)c5)OC4)C3=O)CO2)ccc1O (stereo not drawn)	30%
CC(C)c1ccc(OCC(=O)N2CCC(CCCC3CCN(c4ccc(C(=O)N5CCCC5C(N)=O)cn4)CC3)CC2)cc1 (stereo not drawn)	0%
CC(C)c1ccc(S(=O)(=O)N2CCn3nc(C4CCC(CNC(=O)c5ccco5)CC4)cc32)cc1 (stereo not drawn)	20%
O=C(O)[C@@H](Cc1ccccc1)N1C(=O)/C(=C/c2cccc(Oc3ccc(Cl)cc3)c2)SC1=S	10%
CCC(C)C(NC(=O)OCc1ccccc1)C(=O)NC(Cc1ccc(O)cc1)C(N)=O (stereo not drawn) (Cbz-Ile-Tyr-NH2; configuration not given here)	0%

SMILES	inhibition
COCCCn1c(CN2CCN(c3ccccc3F)CC2)nc2cc(C(=O)NCC(O)CO)ccc21 (stereo not drawn)	10%
CCCCn1c(CN2CC(C)CC(C)C2)nc2cc(C(=O)NCC(O)CO)ccc21 (stereo not drawn)	0%
CCCCCCOC(=O)Oc1ccc(/C=N/c2ccc(OCC)cc2)cc1	0%
CCN(CCCCOC(=O)c1ccc(OC)c(OC)c1)C(C)Cc1ccc(OC)cc1 (stereo not drawn)	10%
COc1cc(C2CC(=O)NC(SCC(=O)Nc3ccccc3C)=C2C#N)cc(Br)c1O (stereo not drawn)	30%
N#CC1CCCC(NC(=O)c2cccc(S(=O)(=O)Nc3ccc(Br)cc3)c2)C1 (stereo not drawn)	0%
C#CCN1C(=O)S/C(=C/c2ccc(OCc3ccc4ccccc4c3)c(OCC)c2)C1=O	0%
Cc1ccc2[nH]c3nc(SCC(=O)NCc4ccc5c(c4)OCO5)nnc3c2c1	10%
COc1cccc(CNS(=O)(=O)c2ccc3c(c2)NC(=O)C(C)N3C(=O)CN2CCN(c3ccccn3)CC2)c1OC (stereo not drawn)	10%
COc1cc(C2CC(=O)NC(SCc3ccccc3)=C2C#N)ccc1O (stereo not drawn)	30%
COc1ccc(CCn2c(C(C)Oc3ccccc3)nc3cc(C(=O)NCCOCCO)ccc32)cc1OC (stereo not drawn)	20%
CC(O)C(NC(=O)c1ccc(N2CCCN(C(=O)CCC(=O)c3ccccc3)CC2)nc1)C(N)=O (stereo not drawn)	20%
COc1cc(/C=N/NC(=O)c2cc(-c3ccc(OC)c(OC)c3)n[nH]2)ccc1O	10%
COc1ccc(-c2cc(C(=O)NC(C)(C)C(=O)NCCN(C(C)C)C(C)C)c3ccccc3n2)cc1	0%
COc1ccc(CCNC(=O)c2ccc3c(c2)nc(-c2cc(OC)c(OC)c(OC)c2)n3CCc2ccc(OC)c(OC)c2)cc1OC	30%
CCCCOc1ccc(-c2nc3cc(C(=O)NCCOCCO)ccc3n2Cc2ccco2)cc1	10%
CCCCCOc1ccc(/C=N/c2ccc(/N=C/c3ccc(OCCCCC)cc3)c(Cl)c2)cc1	0%

Other lines, results leading:

inhibition	SMILES
0%	O=C(Cn1c(=O)sc2ccccc21)OCc1cccc(Oc2ccccc2)c1
10%	CCC(COc1ccc2oc3ccccc3c2c1)NCCC(=O)N(CC(N)=O)Cc1ccc(C)cc1 (stereo not drawn)
30%	COc1ccc(CCn2c(-c3cc(OC)c(OC)c(OC)c3)nc3cc(C(=O)NCCc4ccccc4)ccc32)cc1OC
30%	O=C(NCC(O)CO)c1ccc2c(c1)nc(COCc1ccccc1)n2Cc1ccco1 (stereo not drawn)
10%	NC(=O)C(Cc1ccc(O)cc1)NC(=O)c1ccc(N2CCN(C(=O)C(N)Cc3ccccc3)CC2)nc1 (stereo not drawn)
20%	COc1ccc(OC)c(C(=O)NC(CC(=O)NCCc2c[nH]c3ccccc23)c2ccccc2)c1 (stereo not drawn)
10%	CC(CNC(=O)c1cc(-c2ccoc2)nc2ccccc12)C(=O)NCCNc1ccccc1 (stereo not drawn)
20%	COc1cc(CCNC(=O)c2ccc3c(c2)nc(-c2ccccc2)n3CCc2ccc(OC)c(OC)c2)cc(OC)c1
30%	CCCCOc1ccc(-c2nc3cc(C(=O)NCc4cc(F)ccc4F)ccc3n2CCc2ccc(OC)c(OC)c2)cc1
0%	CCn1c2ccccc2c2cc(/C=C3\SC(=S)N([C@H](Cc4ccccc4)C(=O)O)C3=O)ccc21
30%	Cc1ccccc1C(=O)NCC1CCC(c2cc3n(n2)CCN3C(=O)COc2ccccc2)CC1 (stereo not drawn)
20%	O=C(O)c1cc(-c2ccc(/C=C3/S/C(=N\Cc4ccccc4)N(Cc4ccccc4)C3=O)o2)ccc1Cl
30%	CCCCOc1ccc(-c2nc3cc(C(=O)NCc4ccc(C(F)(F)F)cc4)ccc3n2CCc2ccc(OC)c(OC)c2)cc1
30%	C=CCOC(=O)C1=C(C)NC(SCC(=O)Nc2cccc(Cl)c2)=C(C#N)C1c1ccc(O)c(OC)c1 (stereo not drawn)
20%	COc1ccccc1C(COc1ccccc1C)NCCC(=O)N(CC(N)=O)Cc1ccc(C)cc1 (stereo not drawn)
30%	CC(=O)C1=C(C)NC(SCC(=O)Nc2ccc(Br)cc2)=C(C#N)C1c1ccc(O)cc1 (stereo not drawn)
0%	O=C(Cc1ccccc1OC(=O)Cn1c(=O)sc2ccccc21)Cn1c(=O)sc2ccccc21
0%	CCCCCCOc1ccc(C(=O)COC(=O)c2ccccc2-c2ccccc2C(=O)COC(=O)c2ccc(OCCCCCC)cc2)cc1
30%	COc1ccccc1/C=C1\SC(=O)N(CCC(=O)N2c3ccccc3Sc3ccc(Cl)cc32)C1=O
30%	COc1ccccc1C1CC(=O)NC(SCC(=O)Nc2ccc(Br)cc2)=C1C#N (stereo not drawn)
10%	COc1cccc(CNC2CC(=O)N(c3ccc(N4C(=O)CC(NCc5cccc(OC)c5OC)C4=O)cc3)C2=O)c1OC (stereo not drawn)
30%	COc1ccc(C2=NN(C(=O)CSc3nnc(CNC(=O)c4ccco4)n3-c3cc(C)ccc3C)C(c3ccc(OC)cc3)C2)cc1 (stereo not drawn)
10%	CCOc1cc(/C=C2/NC(=O)N(Cc3ccccc3F)C2=O)cc(Br)c1OCc1ccc2ccccc2c1
0%	CCn1c2ccccc2c2cc(/C=C3\SC(=S)N([C@H](Cc4ccc(O)cc4)C(=O)O)C3=O)ccc21
30%	CC(C)C(=O)NC(Cc1ccc(OCc2ccccc2)cc1)C(=O)NCCCN(C)c1ccccc1 (stereo not drawn)
20%	COc1cc([C@@H]2C(C(=O)c3cccs3)=C(O)C(=O)N2CCc2ccccc2)cc(Br)c1O
10%	CCCCCC(C)(C)c1ccc(Oc2ccc(NC(=O)c3cc(/N=N/c4cccc(OC)c4)c4ccccc4c3O)cc2)cc1
10%	CC(=O)N1c2ccc(NC(=O)c3ccc(Cl)cc3Cl)cc2C2(c3ccccc3)N(C(C)=O)c3ccc(NC(=O)c4ccc(Cl)cc4Cl)cc3C12c1ccccc1 (stereo not drawn)
